Data as given in paper PMC2882989 (Biochemistry, 2010).

Molecular target: LovK (Caulobacter vibrioides, UniProt A0A0H3C379)
Assay: competition with BODIPY-ATP, fluorescence anisotropy
Type: binding
Conditions: 1 mM ATP in excess; competitive, same site as BODIPY-ATP

**Q.** For `Nc1ncnc2c1ncn2[C@@H]1O[C@H](COP(=O)(O)OP(=O)(O)OP(=O)(O)O)[C@@H](O)[C@H]1O` [ATP], which “competition with BODIPY-ATP, fluorescence anisotropy” value is on record?
**A.** Its value is “BODYPI-ATP is displaced from LovK due to competition for the same binding site”.
